US7855211B2, “Protein kinase inhibitors” (Eli Lilly and Company, priority 2008, dated 2010)

What was measured:
CDK6 = biological target: T1, CDK6 (Homo sapiens, UniProt Q00534); assay: CDK6 Inhibition Assay; type: biochemical; settings: CDK6 kinase, 33P-ATP, CTRF substrate
T1 construct: purchased Proqinase 7533
Method: 10 μL of test compound in 20% DMSO, 20 μL of ATP and CTRF (Upstate cat # 12-439) solution, and 10 μL of enzyme solution are mixed in a 96 well plate. The ATP and CRTF solution is prepared to give a final concentration of 100 μM ATP, 0.5 μCi [^33P]-ATP and 0.8 μM CTRF diluted in kinase buffer of 68 mM HEPES pH 7.4, 6.72 mM MgCl2, 2.64 mM DTT, and 0.004% TRITON™ X-100. The enzyme solution is prepared for a final concentration of 1.7 ng/μL CDK6 enzyme (Proqinase cat # 7533) diluted in the kinase buffer described above in the CDK4 inhibition assay. Test compounds are serially diluted 1:3 in 20% DMSO to create a 10 point curve at a starting concentration of 20 μM. 20% DMSO buffer alone without added test compound is employed as a control, 500 mM EDTA is used to determine the level of background ^33P in the absence of enzyme activity. Reagents are mixed and incubated for 90 min at 20° C. The reaction is terminated by the addition of 80 μL 10% (v/v) H3PO4 and precipitation of material onto glass fiber filter plates (Millipore, MAFC N0B 50). The wells are washed four times with 0.5% H3PO4 and the radioactivity incorporated is determined with a microplate scintillation counter (Microbeta Trilux, Wallac).
The data is analyzed in the same manner as for CDK4. Preferred exemplified compounds display an IC50 of <30 nM in the above assay. […]

[1] = system: Calu-6 (lung) subcutaneous xenografts; assay: Calu-6 (lung) subcutaneous xenograft, combination study with gemcitabine; type: in vivo, human; settings: 60 mpk, IP, q3dx7
Method: (§1) Test compound is prepared in an appropriate vehicle (1% hydroxyethyl cellulose, in 25 mM phosphate buffer pH 2) and is administered by oral gavage daily (at 25, 50 or 100 mg/kg (mpk)) for 21 days when tumours are established (11-29 days after implant). Tumour response is determined by tumour volume measurement performed twice a week during the course of treatment.
(§2) The statistical method for assessing Tumour Growth Delay (TGD-Individual interpolation method) is as follows: For each animal, the time to reach a specified tumour volume (threshold) is calculated by interpolating between the last measurement before reaching the threshold and the next measurement. The interpolation is linear using log10(volume) vs. time. If an animal never reaches the threshold, its crossing time is reported at “>T” where T is the last day measured for that animal. These crossing times are analyzed as “time-to-event” data with right-censoring using a Weibull distribution. A mean and standard deviation are determined for each treatment group. Tumour growth delay (TGD) is the difference in mean crossing time between a treated group and the vehicle control group. T-tests are performed using the means and standard deviations from the Weibull analysis. Body weight is taken as a general measurement of toxicity.
Calu-6 (lung) subcutaneous xenografts are grown and measured as previously described. Gemcitabine was formulated in saline (0.9% sodium chloride in purified water) and administered via intraperitoneal injection q3dx7. Test compound was administered qdx21. A comparison of the single agent activity of gemcitabine with combination treatments containing both gemcitabine and the compound of Example 16 are shown in Table 10. Tumour growth is analyzed by 2-way interaction analysis.

[2] = system: U87 MG subcutaneous xenografts; assay: U87 MG subcutaneous xenograft, combination study with temozolomide; type: in vivo, human; settings: 3 mpk, IP, q7dx2
Method: as §1, §2
U87 MG subcutaneous xenografts are grown and measured as previously described. The compound of Example 16 is formulated and administered as previously described and dosed orally once a day from days 11-31. Temozolomide (Schering Corporation) is formulated in 1% w/v hydroxyethylcellulose/0.25% v/v polysorbate 80 in purified water and administered by interperitoneal injection on days 11 and 18. A comparison of the single agent activity of temozolomide with a combination treatment with the compound of Example 16 is shown in Table 7. Tumor growth is analyzed by 2-way interaction analysis; log-transformed tumor volumes were analyzed with a repeated measures analysis of variance (ANOVA) using a spatial power correlation model in SAS, version 9.1 (Cary, N.C.). […]

[3] = system: U87 MG orthotopic brain xenografts; assay: U87 MG orthotopic brain xenograft, combination study with temozolomide; settings: TMZ IP 3 mg/kg (days 6 and 13)
Method: In vivo brain tumour model: Male NIH-RNU rats weighing between 225 and 300 g are anesthetized with isoflurane and placed into a stereotaxic frame (David Kopf Instruments, Tujunga, Calif.). A mid-line incision is made and a 1 mm burr hole drilled 2 mm lateral from the midline and 3 mm anterior to the coronal suture. A cell suspension of 5×10^5 U87 MG human glioblastoma tumour cells (grown in Eagle's MEM with Earle Salts, L-glutamine and non essential amino acids, 1 mM Na pyruvate and 10% FBS) in 10 μL (5×10^5 cells for qd dosing and 1×10^6 for q2d dosing) is injected at a depth of 3 mm by means of a 25 or 50 μl Hamilton syringe over a period of approximately 2 min using a stereotaxic-mounted syringe pump (Nano-Injector, model #53310 and Stereotaxic Adapter Clamp, part #51681, Stoelting Co, Wood Dale, Ill.) with the syringe left in place for an additional 1 min to prevent backflow and the syringe is slowly withdrawn. […]
The primary outcome variable is survival. Animals are monitored daily until death and, in consultation with the veterinary staff and in adherence with the policy on tumour implantation, euthanized if the animal becomes moribund. […] Survival data are analyzed by the Kaplan-Meier method for median survival analysis using JMP ν6.0.2 (SAS Institute).

T1 sequence (Q00534 whole entry): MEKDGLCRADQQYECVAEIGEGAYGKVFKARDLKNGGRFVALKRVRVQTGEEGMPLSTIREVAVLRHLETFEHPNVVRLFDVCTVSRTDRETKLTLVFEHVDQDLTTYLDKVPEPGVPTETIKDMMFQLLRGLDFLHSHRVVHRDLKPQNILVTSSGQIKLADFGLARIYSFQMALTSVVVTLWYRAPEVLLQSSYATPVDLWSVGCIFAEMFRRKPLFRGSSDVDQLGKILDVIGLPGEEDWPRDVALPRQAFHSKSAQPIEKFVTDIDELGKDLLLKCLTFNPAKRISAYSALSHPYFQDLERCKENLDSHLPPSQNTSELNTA
T1 sequence (P24385 whole entry partner): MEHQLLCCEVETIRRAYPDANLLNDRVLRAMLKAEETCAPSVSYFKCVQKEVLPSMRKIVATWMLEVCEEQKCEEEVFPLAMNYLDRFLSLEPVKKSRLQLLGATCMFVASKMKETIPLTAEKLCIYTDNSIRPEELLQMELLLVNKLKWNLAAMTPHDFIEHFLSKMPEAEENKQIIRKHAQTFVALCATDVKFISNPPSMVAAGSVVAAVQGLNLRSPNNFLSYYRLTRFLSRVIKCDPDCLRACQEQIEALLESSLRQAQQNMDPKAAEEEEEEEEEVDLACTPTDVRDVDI

Structure (SMILES): Cc1nc2c(F)cc(-c3nc(Nc4ccc(CN5CCN(C(C)C)CC5)cn4)ncc3F)cc2n1C(C)C [Example 19, [5-Fluoro-4-(7-fluoro-3-isopropyl-2-methyl-3H-benzoimidazol-5-yl)-pyrimidin-2-yl]-[5-(4-isopropyl-piperazin-1-ylmethyl)-pyridin-2-yl]-amine methanesulfonate]
- IC50 (CDK6): 5 nM

Structure (SMILES): Cl.Nc1ccn([C@@H]2O[C@H](CO)[C@@H](O)C2(F)F)c(=O)n1 (single isomer, unassigned) [Gemcitabine, 2′-deoxy-2′,2′-difluorocytidine monohydrochloride (β-isomer)]
- Dead/total animals [1]: 0/7
- Maximum body weight loss (%) [1]: −12%
- Tumor volume (mg) at end of dosing period (day 38) [1]: 509.18 mg

Structure (SMILES): Cn1nnc2c(C(N)=O)ncn2c1=O [Temozolomide]
- Dead/total animals [2]: 0/8
- Maximum body weight loss (%) [2]: −1%
- Tumor volume (mg) at end of dosing period (day 31) [2]: 101.88 mg
- Mean Survival [3]: 46.9 days
- Median Survival [3]: 47 days
